Results reported in patent publication US20080153891A1, “SYNERGISTIC ANTI-CANCER COMPOSITIONS” (The Arizona Board of Regents, priority 2003, published 2008).

Assays:
[1] = test system: 8226/s cells; experiment: Combination cytotoxicity with imexon, MTT assay, combination index (median-effect); assay type: cell-based, human; settings: in combination with imexon at fixed constant ratio, 5 days after drugging, classified by combination index
[2] = test system: A375 cells; experiment: Combination cytotoxicity with imexon, SRB assay, combination index (median-effect); assay type: cell-based, human; settings: in combination with imexon at fixed constant ratio, 5 days after drugging, classified by combination index
[3] = Toxicology study in non-tumor bearing (normal) mice
Protocol: A toxicology study was performed in non-tumor bearing (i.e., normal) mice given imexon (100 mg/kg/day×9 days) with either gemcitabine (180 mg/kg days 1, 5 and 9) or cytarabine (800 mg/kg days 1, 4 and 7). The tests were conducted to evaluate whether there was increased bone marrow toxicity or decreased renal and hepatic function for imexon combined with either agent.

O=c1[nH]cc(F)c(=O)[nH]1 [5-fluorouracil]
Effect of second antineoplastic agent in combination with imexon, 8226/S CELL LINE [1]: Synergistic (Where the combination index is less than 1, synergism is indicated) | Effect of second antineoplastic agent in combination with imexon, A375 CELL LINE [2]: Synergistic (Where the combination index is less than 1, synergism is indicated)

N=C1NC(=O)N2CC12 (stereo not shown) [Imexon, 4-imino-1,3-diazabicyclo[3.1.0]-hexan-2-one]
Mean Platelet Counts (SD), Day 10 ([3]; Day 10, imexon 100 mg/kg days 1-9, cytarabine 800 mg/kg days 1, 4, 7, gemcitabine 180 mg/kg days 1, 5, 9): 880 (180) × 1000/μL | Mean Platelet Counts (SD), Day 12 ([3]; Day 12, imexon 100 mg/kg days 1-9, cytarabine 800 mg/kg days 1, 4, 7, gemcitabine 180 mg/kg days 1, 5, 9): 920 (138) × 1000/μL | number of red blood cells ([3]; imexon 100 mg/kg/day x 9 days): increased slightly

N.N.[Cl][Pt][Cl] [cisplatin]
Effect of second antineoplastic agent in combination with imexon, 8226/S CELL LINE [1]: Synergistic (Where the combination index is less than 1, synergism is indicated) | Effect of second antineoplastic agent in combination with imexon, A375 CELL LINE [2]: Synergistic (Where the combination index is less than 1, synergism is indicated)

Nc1ccn([C@@H]2O[C@H](CO)[C@@H](O)[C@@H]2O)c(=O)n1 [cytarabine]
Effect of second antineoplastic agent in combination with imexon, 8226/S CELL LINE [1]: Synergistic (Where the combination index is less than 1, synergism is indicated) | Effect of second antineoplastic agent in combination with imexon, A375 CELL LINE [2]: Synergistic (Where the combination index is less than 1, synergism is indicated)

CN(C)/N=N/c1[nH]cnc1C(N)=O [dacarbazine (DTIC), dacarbazine]
Effect of second antineoplastic agent in combination with imexon, 8226/S CELL LINE [1]: Synergistic (Where the combination index is less than 1, synergism is indicated) | Effect of second antineoplastic agent in combination with imexon, A375 CELL LINE [2]: Synergistic (Where the combination index is less than 1, synergism is indicated)

C[C@@H]1C[C@H]2[C@@H]3CCC4=CC(=O)C=C[C@]4(C)[C@@]3(F)[C@@H](O)C[C@]2(C)[C@@]1(O)C(=O)CO [dexamethasone]
Effect of second antineoplastic agent in combination with imexon, 8226/S CELL LINE [1]: Antagonistic (Where the combination index is greater than 1, antagonism is indicated) | Effect of second antineoplastic agent in combination with imexon, A375 CELL LINE [2]: Additive (Where the combination index is equal to 1, summation (also commonly referred to as additivity) is indicated)

COc1cccc2c1C(=O)c1c(O)c3c(c(O)c1C2=O)C[C@@](O)(C(=O)CO)C[C@@H]3O[C@H]1C[C@H](N)[C@H](O)[C@H](C)O1 [doxorubicin]
Effect of second antineoplastic agent in combination with imexon, 8226/S CELL LINE [1]: Antagonistic (Where the combination index is greater than 1, antagonism is indicated) | Effect of second antineoplastic agent in combination with imexon, A375 CELL LINE [2]: Antagonistic (Where the combination index is greater than 1, antagonism is indicated)

Nc1ccn([C@@H]2O[C@H](CO)[C@@H](O)C2(F)F)c(=O)n1 [gemcitabine]
Effect of second antineoplastic agent in combination with imexon, 8226/S CELL LINE [1]: Synergistic (Where the combination index is less than 1, synergism is indicated) | Effect of second antineoplastic agent in combination with imexon, A375 CELL LINE [2]: Synergistic (Where the combination index is less than 1, synergism is indicated)

CN(Cc1cnc2nc(N)nc(N)c2n1)c1ccc(C(=O)N[C@@H](CCC(=O)O)C(=O)O)cc1 [methotrexate]
Effect of second antineoplastic agent in combination with imexon, 8226/S CELL LINE [1]: Antagonistic (Where the combination index is greater than 1, antagonism is indicated) | Effect of second antineoplastic agent in combination with imexon, A375 CELL LINE [2]: Antagonistic (Where the combination index is greater than 1, antagonism is indicated)

CC(=O)O[C@H]1C(=O)[C@@]2(C)[C@H]([C@H](OC(=O)c3ccccc3)[C@]3(O)C[C@H](OC(=O)[C@H](O)[C@@H](NC(=O)c4ccccc4)c4ccccc4)C(C)=C1C3(C)C)[C@]1(OC(C)=O)CO[C@@H]1C[C@@H]2O [paclitaxel]
Effect of second antineoplastic agent in combination with imexon, 8226/S CELL LINE [1]: Antagonistic (Where the combination index is greater than 1, antagonism is indicated) | Effect of second antineoplastic agent in combination with imexon, A375 CELL LINE [2]: Additive (Where the combination index is equal to 1, summation (also commonly referred to as additivity) is indicated)

CC(=O)O[C@@]12CO[C@@H]1C[C@H](O)[C@@]1(C)C(=O)[C@H](O)C3=C(C)[C@@H](OC(=O)[C@H](O)[C@@H](NC(=O)OC(C)(C)C)c4ccccc4)C[C@@](O)([C@@H](OC(=O)c4ccccc4)[C@H]21)C3(C)C [taxotere, docetaxel]
Effect of second antineoplastic agent in combination with imexon, 8226/S CELL LINE [1]: Synergistic (Where the combination index is less than 1, synergism is indicated) | Effect of second antineoplastic agent in combination with imexon, A375 CELL LINE [2]: Synergistic (Where the combination index is less than 1, synergism is indicated)

CCC1=C[C@@H]2CN(C1)Cc1c([nH]c3ccccc13)[C@@](C(=O)OC)(c1cc3c(cc1OC)N(C)[C@H]1[C@@](O)(C(=O)OC)[C@H](OC(C)=O)[C@]4(CC)C=CCN5CC[C@]31[C@@H]54)C2 [vinorelbine]
Effect of second antineoplastic agent in combination with imexon, 8226/S CELL LINE [1]: Additive (Where the combination index is equal to 1, summation (also commonly referred to as additivity) is indicated) | Effect of second antineoplastic agent in combination with imexon, A375 CELL LINE [2]: Additive (Where the combination index is equal to 1, summation (also commonly referred to as additivity) is indicated)
